Reference: article PMC9706574, “A Versatile and Sustainable Multicomponent Platform for the Synthesis of Protein Degraders: Proof-of-Concept Application to BRD4-Degrading PROTACs” (Journal of Medicinal Chemistry, 2022)
Values after ≈ are worked out from the molar mass of the structure shown.

Key:
[1] = Metabolic stability in mouse liver microsomes (MLM); format: in vitro ADME
Description: To this aim, we evaluated the metabolic stability of the five selected PROTACs in mouse liver microsomes (MLM).
Mouse liver microsomes (MLM) (pooled male mouse CD-1, protein concentration: 20 mg/mL) were purchased from Corning B.V. Life Sciences (Amsterdam, The Netherlands). The standard incubation mixture (250 μL final volume) was carried out in a 50 mM Tris (tris[hydroxymethyl]aminomethane) buffer (pH 7.4) containing 150 mM KCl, 1.5 mM, 3.3 mM MgCl2, 1.3 mM NADPNa2, 3.3 mM glucose 6-phosphate, 0.4 units/mL glucose 6-phosphate dehydrogenase, acetonitrile as cosolvent (1% of total volume), and the substrate (50 μM). After pre-equilibration of the mixture, an appropriate volume of MLM suspension was added to give a final protein concentration of 1.0 mg/mL. The mixture was shaken for 60 min at 37 °C. Control incubations were carried out without the presence of an NADPH-regenerating system or microsomes. Each incubation was stopped by the addition of 250 μL of ice-cold acetonitrile, vortexed, and centrifuged at 13 000 rpm for 5 min. The supernatants were analyzed by LC-UV.

[2] = Thermodynamic aqueous solubility; format: physicochemical
Description: Saturated solutions were prepared by dissolving the tested compounds in 0.1 M phosphate-buffered saline (pH = 7.4) or 0.01 N HCl solutions and sonicated for 30 s. After equilibration on an orbital shaker at 25 °C for 2 h, the solutions were centrifuged at 13 000 rpm for 5 min and filtered through a 0.2 μm regenerated cellulose (RC) syringe filter. A 400 μL aliquot of each filtrate was diluted with 100 μL of acetonitrile and analyzed by LC-UV. When the measured peak area was out of the calibration range (5–100 μM), the sample was further diluted in water–acetonitrile 1:1 mixture.

[3] = design: method as in PMID 33026811; conditions: physiological pH, in 3 h; cited from earlier work

metabolic stability in MLM (in words) [1] | melting point | solubility thermodynamic at 2 h ([2]; 0.01 N HCl solution, HCl 0.01 N, pH 2.0, 25 °C) | solubility at physiological pH (in words) ([2]; pH 7.4) | solubility thermodynamic at 2 h ([2]; phosphate-buffered saline, PBS 0.1 M, pH 7.4, 25 °C) | Compound | hydrolytic degradation [3]
highly stable in MLM | 105.2 to 107 °C (dec.) | 18 µM (≈ 14.2 µg/mL) | the least soluble | 8 µM (≈ 6.29 µg/mL) | Cc1sc2c(c1C)C(c1ccc(Cl)cc1)=N[C@@H](CC(=O)OCC(=O)NCCCCOc1cccc3c1C(=O)N(C1CCC(=O)NC1=O)C3=O)c1nnc(C)n1-2 (stereo partly drawn) [Compound 37, 2-((4-((2-(2,6-Dioxopiperidin-3-yl)-1,3-dioxoisoindolin-4-yl)oxy)butyl)amino)-2-oxoethyl2-((S)-4-(4-chlorophenyl)-2,3,9-trimethyl-6H-thieno[3,2-f][1,2,4]triazolo[4,3-a][1,4]diazepin-6-yl)acetate] | –
– | – | – | – | – | O=C1CCC(N2C(=O)c3ccccc3C2=O)C(=O)N1 (stereo not drawn) [thalidomide] | about 30%
